Measurements taken from the supplement of paper PMC11061612.

Columns and labels:
Experiment in all cases: combination Emax (second highest fraction inhibited in the dose matrix, 72 h); higher = more inhibition; extreme values may be limits of the assay
HOS (Osteosarcoma) = tested on: HOS (Osteosarcoma)
Method in brief: (§1)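 After 24 hours at 37°C and 5% CO2 in 1536-well plates, cells in DMEM/F12 or RPMI plus 10% FBS received two-drug dose matrices for 72 hours. Viability came from CellTiter-Glo 2.0 luminescence and was scaled as inhibition, anchored at 0 by vehicle wells and at 1 by blank wells. Combination Emax is taken as the second-highest inhibition in the matrix, and Bliss excess as the observed combination effect less EA + EB − EA·EB, with EA and EB the single-agent effects.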

[1] = tested on: HCC-78 (Lung Adenocarcinoma)
Method in brief: as §1

[2] = tested on: DEL (T-Cell Non-Hodgkin's Lymphoma)
Method in brief: as §1

[3] = tested on: KURAMOCHI (Ovarian Carcinoma)
Method in brief: as §1

[4] = tested on: HO-1-N-1 (Oral Cavity Carcinoma)
Method in brief: as §1

NB10 (Neuroblastoma) = tested on: NB10 (Neuroblastoma)
Method in brief: as §1

[5] = tested on: TCCSUP (Bladder Carcinoma)
Method in brief: as §1

[6] = tested on: UM-UC-3 (Bladder Carcinoma)
Method in brief: as §1

[7] = tested on: Ramos-2G6-4C10 (Burkitt's Lymphoma)
Method in brief: as §1

[8] = tested on: CCRF-CEM (T-Lymphoblastic Leukemia)
Method in brief: as §1

T98G (Glioblastoma) = tested on: T98G (Glioblastoma)
Method in brief: as §1

[9] = tested on: Hs-578-T (Breast Carcinoma)
Method in brief: as §1

[10] = tested on: NCI-H2085 (Non-Small Cell Lung Carcinoma)
Method in brief: as §1

[11] = tested on: SK-ES-1 (Ewing's Sarcoma)
Method in brief: as §1

[12] = tested on: RO82-W-1 (Thyroid Gland Carcinoma)
Method in brief: as §1

[13] = tested on: Daoy (Other Solid Carcinomas)
Method in brief: as §1

[14] = tested on: HT-1376 (Bladder Carcinoma)
Method in brief: as §1

ES4 (Ewing's Sarcoma) = tested on: ES4 (Ewing's Sarcoma)
Method in brief: as §1

42-MG-BA (Glioblastoma) = tested on: 42-MG-BA (Glioblastoma)
Method in brief: as §1

[15] = tested on: ME-1 (Acute Myeloid Leukemia)
Method in brief: as §1

Row | SMILES | combination Emax (HOS (Osteosarcoma)) | combination Emax [1] | combination Emax [2] | combination Emax [3] | combination Emax [4] | combination Emax (NB10 (Neuroblastoma)) | combination Emax [5] | combination Emax [6] | combination Emax [7] | combination Emax [8] | combination Emax (T98G (Glioblastoma)) | combination Emax [9] | combination Emax [10] | combination Emax [11] | combination Emax [12] | combination Emax [13] | combination Emax [14] | combination Emax (ES4 (Ewing's Sarcoma)) | combination Emax (42-MG-BA (Glioblastoma)) | combination Emax [15]
1 | NC1(C(=O)N[C@@H](CCO)c2ccc(Cl)cc2)CCN(c2ncnc3[nH]ccc23)CC1 [Capivasertib] + CCN(CCO)CCCOc1ccc2c(Nc3cc(CC(=O)Nc4cccc(F)c4)[nH]n3)ncnc2c1 [AZD2811] (first compound max 10 µM, 7x7, partner max 1 µM) | 0.408 | 0.349 | 0.859 | 0.332 | 0.833 | 0.452 | 0.389 | 0.298 | 0.807 | 1 | 0.437 | 0.732 | 0.436 | 0.974 | 0.215 | 0.501 | 0.156 | 0.422 | 0.782 | 0.199
2 | NC1(C(=O)N[C@@H](CCO)c2ccc(Cl)cc2)CCN(c2ncnc3[nH]ccc23)CC1 [Capivasertib] + COc1nnc2ccc(N3CCC(c4ccc(OCCN5CCN(C)C(=O)[C@H]5C)cc4)CC3)nn12 [AZD5153] (first compound max 10 µM, 7x7, partner max 1 µM) | 0.632 | 0.389 | 0.893 | 0.776 | 0.887 | 0.527 | 0.35 | 0.411 | 0.997 | 0.905 | 0.699 | 0.887 | 0.6 | 0.789 | 0.362 | 0.676 | 0.108 | 0.624 | 0.813 | 0.402
3 | NC1(C(=O)N[C@@H](CCO)c2ccc(Cl)cc2)CCN(c2ncnc3[nH]ccc23)CC1 [Capivasertib] + C[C@@H]1COCCN1C2=NC(=NC(=C2)C3(CC3)[S@](=N)(=O)C)C4=C5C=CNC5=NC=C4 [AZD6738] (first compound max 10 µM, 7x7, partner max 10 µM) | 0.844 | 0.721 | 1 | 0.535 | 0.869 | 0.811 | 0.685 | 0.53 | 0.922 | 0.983 | 0.867 | 0.823 | 0.504 | 0.876 | 0.215 | 0.901 | 0.377 | 0.851 | 0.775 | 0.277
4 | NC1(C(=O)N[C@@H](CCO)c2ccc(Cl)cc2)CCN(c2ncnc3[nH]ccc23)CC1 [Capivasertib] + Cn1cnc2c(F)c(Nc3ccc(Br)cc3Cl)c(C(=O)NOCCO)cc21 [Selumetinib] (first compound max 10 µM, 7x7, partner max 10 µM) | 0.491 | 0.295 | 0.578 | 0.444 | 0.848 | 0.428 | 0.373 | 0.533 | 0.435 | 0.485 | 0.49 | 0.746 | 0.427 | 0.429 | 0.277 | 0.472 | 0.18 | 0.398 | 0.737 | 0.342
5 | Cc1nc(Nc2ncc(C(=O)Nc3c(C)cccc3Cl)s2)cc(N2CCN(CCO)CC2)n1 [Dasatinib] + CC(=O)Nc1cccc(-n2c(=O)n(C3CC3)c(=O)c3c(Nc4ccc(I)cc4F)n(C)c(=O)c(C)c32)c1 [Trametinib] (first compound max 2 µM, 7x7, partner max 1 µM) | 0.397 | 0.347 | 0.433 | 0.937 | 0.939 | 0.658 | 0.266 | 0.685 | 0.238 | 0.149 | 0.744 | 0.922 | 0.82 | 0.24 | 0.436 | 0.41 | 0.241 | 0.215 | 0.971 | 0.375
6 | COc1cccc2c1C(=O)c1c(O)c3c(c(O)c1C2=O)C[C@@](O)(C(=O)CO)C[C@@H]3O[C@H]1C[C@H](N)[C@H](O)[C@H](C)O1 [Doxorubicin] + Cc1cc2ncnn2cc1Nc1ncc2c(n1)n(C1CCOCC1)c(=O)n2C [AZD7648] (first compound max 1 µM, 7x7, partner max 10 µM) | 0.972 | 0.751 | 1 | 0.546 | 0.979 | 0.863 | 0.665 | 0.802 | 0.951 | 1 | 0.597 | 0.856 | 0.546 | 0.983 | 0.628 | 0.875 | 0.182 | 0.945 | 0.925 | 0.355
7 | COc1cc2ncnc(Nc3ccc(F)c(Cl)c3)c2cc1OCCCN1CCOCC1 [Gefitinib] + CC(C)n1c(=O)n(C)c2cnc3cc(F)c(-c4ccc(OCCCN5CCCCC5)nc4)cc3c21 [AZD1390] (first compound max 10 µM, 7x7, partner max 0.3 µM) | 0.0904 | 0.133 | 0.187 | 0.128 | 0.568 | 0.0716 | 0.114 | 0.0932 | 0.148 | 0.054 | 0.12 | 0.319 | 0.225 | 0.341 | 0.164 | 0.0924 | 0.177 | 0.3 | 0.32 | 0.199
